Results on 5 molecules are retold here after patent publication EP1171440B1, “SUBSTITUTED-3-CYANO-[1.7],[1.5], AND [1.8]-NAPHTHYRIDINE INHIBITORS OF TYROSINE KINASES” (Wyeth Holdings Corporation, priority 1999, dated 2000).

Values after ≈ are worked out from the molar mass of the structure shown. Like-named read-outs stand apart in the source and are kept apart here.

Usually IC50 stands for the concentration that gives 50% inhibition. In general, inhibition refers to the percentage by which the read-out fell short of the control.

The subject of one assay is SW620. Briefly: Inhibition of Cancer Cell Growth as Measured by Cell Number (Sulforhodamine B). The note with it: Homo sapiens, SW-620, 48 hours exposure, read-out: IC50. The class given is cell-based, Human. The procedure:
(§1) After 48 hours exposure to test compounds, cells were fixed with trichloroacetic acid, and stained with Sulforhodamine B. After washing with trichloroacetic acid, bound dye was solubilized in 10 mM Tris base and optical density was determined using a plate reader. Under conditions of the assay the optical density is proportional to the number of cells in the well. […] The test procedure is described in details by Philip Skehan et. al, J.Natl. Canc. […] The Her2Neu cell line is a 3T3 line that has bbeen transfected with Her2 receptor kinase.

Another assay has as its system A431. The description is as above. The class given is cell-based, Human. The note with it: 48 hours exposure. The procedure:
as §1

In the next assay the test system is A2780DDP. The description is as above. The format is cell-based, Human. The note with it: Homo sapiens, 48 h, 48 hours exposure, read-out: IC50. The procedure:
as §1

A further assay has as its system LOX. The assay is described as above. The format is cell-based, Human. The note with it: Homo sapiens, 48 hours exposure, read-out: IC50. The protocol: as §1
A further assay relates to A2780S. The description is as above. The class given is cell-based, Human. The note with it: Homo sapiens, 48 h, 48 hours exposure, read-out: IC50. The protocol:
as §1

For the next assay, the system named is MDA435. The description is as above. The format is cell-based, Human. The note with it: Homo sapiens, MDA435, 48 h, 48 hours exposure, read-out: IC50. The protocol:
as §1

A further assay deals with SKBR3. The description is as above. The class given is cell-based, Human. The note with it: Homo sapiens, SK-BR-3, 48 hours exposure, read-out: IC50. The protocol: as §1
Assay [1] addresses T1, EGF-R Kinase (recombinant enzyme) (Homo sapiens, UniProt P00533).
T1 construct: containing the EGFR cDNA encoding amino acids 645 - 1186 preceded by Met-Ala-(His)6; made in house; host or cells: Sf9 insect cells infected with recombinant baculovirus vHcEGFR52
Briefly: Inhibition of Epidermal Growth Factor Receptor Kinase (EGF-R) using recombinant enzyme, RR-SRC peptide phosphorylation with 33P-ATP. The format is biochemical. The procedure:
Representative test compounds were evaluated for their ability to inhibit the phosphorylation of the tyrosine residue of a peptide substrate catalyzed by the enzyme epidermal growth factor receptor kinase. […] The enzyme used in this assay is the His-tagged cytoplasmic domain of EGFR. A recombinant baculovirus (vHcEGFR52) was constructed containing the EGFR cDNA encoding amino acids 645 - 1186 preceded by Met-Ala-(His)6 . Sf9 cells in 100 mm plates were infected at an moi of 10 pfu/cell and cells were harvested 48 h post infection. A cytoplasmic extract was prepared using 1% Triton X-100 and applied to Ni-NTA column. After washing the column with 20 mM imidazole, HcEGFR was eluted with 250 mM imidazole (in 50 mM Na2HPO4, pH 8.0, 300 mM NaCl). Fractions collected were dialyzed against 10 mM HEPES, pH 7.0, 50 mM NaCl, 10% glycerol, 1ug/mL antipain and leupeptin and 0.1 mM Pefabloc SC. The protein was frozen in dry ice/methanol and stored -70° C.
Test compounds were made into 10 mg/mL stock solutions in 100% dimethylsulfoxide (DMSO). Prior to experiment, stock solutions were diluted to 500 uM with 100% DMSO and then serially diluted to the desired concentration with HEPES buffer (30 mM HEPES pH 7.4).
For the enzyme reaction, 10 uL of each inhibitor (at various concentrations) were added to each well of a 96-well plate. To this was added 3 uL of enzyme (1:10 dilution in 10mM HEPES, pH 7.4 for final conc. of 1:120). This was allowed to sit for 10 min on ice and was followed by the addition of 5 ul peptide (80 uM final conc.), 10ul of 4X Buffer (Table A), 0.25 uL ^33P-ATP and 12 uL H2O. The reaction was allowed to run for 90 min at room temperature and was followed by spotting the entire volume on to precut P81 filter papers. The filter discs were washed 2X with 0.5% phosphoric acid and radioactivity was measured using a liquid scintillation counter. Table A
The IC50 is the concentration of test compound needed to reduce the total amount of phosphorylated substrate by 50%. The % inhibition of the test compound was determined for at least three different concentrations and the IC50 value was evaluated from the dose response curve. […] CPM(control) is in units of counts per minute and was a number expressing the amount of radiolabeled ATP (γ-^33P) incorporated into the RR-SRC peptide substrate by the enzyme after 90 minutes at room temperature in the absence of test compound as measured by liquid scintillation counting. The CPM values were corrected for the background counts produced by ATP in the absence of the enzymatic reaction. Where it was possible to determine an IC50 value, this is reported in TABLE 1 otherwise the % inhibition at 0.5 µM concentration of test compound is shown in TABLE 1.

The subject of a further assay is MCF7. Nature of the assay: Inhibition of Cancer Cell Growth as Measured by Cell Number (Sulforhodamine B). The class given is cell-based. The note with it: Homo sapiens, 48 hours exposure. The procedure: (§2) Human tumor cell lines were plated in 96-well plates (250 µl/well, 1-6 x 10^4 cells/ml) in RPMI 1640 medium, containing 5% FBS (Fetal Bovine Serum). […] After 48 hours exposure to test compounds, cells were fixed with trichloroacetic acid, and stained with Sulforhodamine B. After washing with trichloroacetic acid, bound dye was solubilized in 10 mM Tris base and optical density was determined using a plate reader. Under conditions of the assay the optical density is proportional to the number of cells in the well. IC50s (concentrations causing 50% inhibition of cell growth) were determined from the growth inhibition plots. The test procedure is described in details by Philip Skehan et. al, J.Natl. Canc. Inst., 82, 1107-1112 (1990). […] Information about some of the cell lines used in these test procedures is available from the American […]: Cell Lines and Hybridomas, 1994 Reference Guide, 8th Edition. The Her2Neu cell line is a 3T3 line that has bbeen transfected with Her2 receptor kinase.

Another assay deals with 3T3. The assay is described as above. The class given is cell-based. The protocol:
as §2

Assay [2] addresses T2, KDR; the catalytic domain of the VEGF receptor (Homo sapiens, UniProt P35968).
T2 construct: KDR; the catalytic domain of the VEGF receptor
Nature of the assay: Inhibition of Kinase insert Domain containing Receptor (KDR), radioactive substrate phosphorylation. The note with it: pH 7.2; substrate copolymer of glutamic acid and tyrosine, E:Y = 4:1. The format is biochemical. The protocol:
In this standard pharmacological test procedure, KDR protein is mixed, in the presence or absence of an inhibitor compound, with a substrate peptide to be phosphorylated (a copolymer of glutamic acid and tyrosine, E:Y = 4:1) and other cofactors such as Mg^++ and sodium vanadate (a protein tyrosine phosphatase inhibitor) in an appropriate buffer to maintain pH (7.2). ATP and a radioactive tracer (either P^32- or P^33- labeled ATP) is then add to initiate phosphorylation. After incubation, the radioactive phosphate associated with the acid-insoluble fraction of the assay mixture is then quantified as reflection of substrate phosphorylation. This radioactive format was used to identify inhibitors of KDR tyrosine kinase activity where the IC50 is the concentration of drug that inhibits substrate phosphorylation by 50%.

The next assay has as its system Her2Neu. Briefly: Inhibition of Cancer Cell Growth as Measured by Cell Number (Sulforhodamine B). The note with it: Her2Neu (3T3 line transfected with Her2 receptor kinase); 48 hours exposure. The format is cell-based. The protocol: as §2
The mark [3] stands for this setting: Homo sapiens, A-431, 48 h, read-out: IC50.
Setting [4] is: recombinant His-tagged cytoplasmic domain of EGFR, RR-SRC peptide, 90 min at room temperature, read-out: IC50.

T1 sequence (P00533 669-1210): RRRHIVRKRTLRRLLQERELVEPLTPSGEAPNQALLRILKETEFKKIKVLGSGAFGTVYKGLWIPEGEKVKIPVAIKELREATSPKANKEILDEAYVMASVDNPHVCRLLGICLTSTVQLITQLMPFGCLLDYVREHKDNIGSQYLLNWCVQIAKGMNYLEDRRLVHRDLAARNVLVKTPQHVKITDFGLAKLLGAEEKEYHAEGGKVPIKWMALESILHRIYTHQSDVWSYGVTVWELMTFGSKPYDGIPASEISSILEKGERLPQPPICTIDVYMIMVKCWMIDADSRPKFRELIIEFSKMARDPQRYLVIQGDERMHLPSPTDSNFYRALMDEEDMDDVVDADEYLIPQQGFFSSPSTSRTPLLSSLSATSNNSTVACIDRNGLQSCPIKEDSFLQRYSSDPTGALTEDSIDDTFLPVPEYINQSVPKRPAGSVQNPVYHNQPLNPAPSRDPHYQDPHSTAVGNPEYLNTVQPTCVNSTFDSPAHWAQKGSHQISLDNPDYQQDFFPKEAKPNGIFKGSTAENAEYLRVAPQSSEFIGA
T2 sequence (P35968 834-1162 limits assumed): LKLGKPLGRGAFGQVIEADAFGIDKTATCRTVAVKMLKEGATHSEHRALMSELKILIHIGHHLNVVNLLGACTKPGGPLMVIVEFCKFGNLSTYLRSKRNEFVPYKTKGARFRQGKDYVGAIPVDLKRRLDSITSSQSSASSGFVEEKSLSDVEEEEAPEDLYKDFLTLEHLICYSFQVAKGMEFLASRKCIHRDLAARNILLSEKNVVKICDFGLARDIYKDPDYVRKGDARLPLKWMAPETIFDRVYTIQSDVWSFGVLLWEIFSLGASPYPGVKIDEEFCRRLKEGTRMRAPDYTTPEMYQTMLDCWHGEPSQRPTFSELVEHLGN

For the molecule `CC#CC(=O)Nc1cc2c(Nc3cccc(Br)c3)c(C#N)cnc2cn1` [Example 61, But-2-ynoic acid, [4-(3-bromo-phenylamino)-3-cyano-[1.7]-naphthyridin-6-yl]-amide], the IC50 with SW620 is 0.17 µg/mL (≈ 0.418 µM); in the assay with A431 (setting [3]), 0.23 µg/mL (≈ 0.566 µM); in the assay with A2780DDP, 0.13 µg/mL (≈ 0.32 µM); in the assay on LOX, 0.07 µg/mL (≈ 0.172 µM); with A2780S it was 0.06 µg/mL (≈ 0.148 µM); in the assay with MDA435, 0.88 µg/mL (≈ 2.17 µM). Further, the IC50 in the assay on SKBR3 came out at 0.12 µg/mL (≈ 0.295 µM); in assay [1] (setting [4]) it was 20 nM; with MCF7 it was 0.4 µg/mL (≈ 0.985 µM).
Regarding `CN(C)CC=CC(=O)Nc1cc2c(Nc3cccc(Br)c3)c(C#N)cnc2cn1` [Example 62, 4-Dimethylamino-but-2-enoic acid, [4-(3-bromo-phenylamino)-3-cyano-[1.7]naphthyridin-6-yl]-amide], the IC50 in the assay with SW620 turned out to be 0.356 µg/mL (≈ 0.789 µM); with A431 (setting [3]), 0.088 µg/mL (≈ 0.195 µM); in the assay with MDA435, 0.464 µg/mL (≈ 1.03 µM); in the assay on SKBR3, 0.0357 µg/mL (≈ 0.079 µM); in assay [1] it was 5 nM; in the assay with 3T3 (48 hours exposure) it was 0.2716 µg/mL (≈ 0.602 µM). The IC50 in the assay with 3T3 (Mus musculus, NIH3T3, 48 h, 48 hours exposure, read-out: IC50) is 0.373 µg/mL (≈ 0.826 µM). In addition, the inhibition at 0.5 µM in assay [1] (read-out: % Inhibition @ 0.5 (µM)) worked out at 97.4%.
Turning to `CNc1cc2c(Nc3cccc(Br)c3)c(C#N)cnc2cn1` [Example 64, 4-(3-Bromo-phenylamino)-6-methylamino-[1.7]naphthyridine-3-carbonitrile], the IC50 in the assay with SW620 was found to be 4.62 µg/mL (≈ 13 µM); in the assay with A431 it was 0.209 µg/mL (≈ 0.59 µM); in the assay on A431 (setting [3]) it was 0.31 µg/mL (≈ 0.875 µM); in the assay on LOX, 3.6 µg/mL (≈ 10.2 µM); in the assay with SKBR3, 1.88 µg/mL (≈ 5.3 µM); in assay [1] (setting [4]) it was 6 nM. In addition, the IC50 in the assay on MCF7 is 3.87 µg/mL (≈ 10.9 µM).
With `Cc1ccc(Nc2c(C#N)cnc3cnc(F)cc23)cc1O` [Example 66, 6-Fluoro-4-(3-hydroxy-4-methyl-phenylamino)-[1.7]naphthyridine-3-carbonitrile], in assay [2], the IC50 was determined as 33.9 µg/mL (≈ 115 µM).
For `CN(C)CCOc1cc2c(Nc3ccc(F)c(Cl)c3)c(C#N)cnc2cn1` [Example 74, 4-(3-Chloro-4-fluoro-phenylamino)-6-(2-dimethylamino-ethoxy)-[1.7]naphthyridine-3-carbonitrile], the IC50 is greater than 5 µg/mL in the assay with SW620; 2.23 µg/mL (≈ 5.77 µM) in the assay with A431 (setting [3]); greater than 5 µg/mL in the assay on MDA435; 4.63 µg/mL (≈ 12 µM) with SKBR3; 1000 nM in assay [1] (setting [4]); 4.48 µg/mL (≈ 11.6 µM) with 3T3 (Mus musculus, NIH3T3, 48 hours exposure, read-out: IC50). Further, the IC50 in the assay on Her2Neu is greater than 5 µg/mL. In assay [1] (0.5 µM concentration of test compound, read-out: % Inhibition @ 0.5), the inhibition at 0.5 µM was found to be 31.3%.
